These results are taken from paper PMC6385358, “Discovery of ((1,2,4-oxadiazol-5-yl)pyrrolidin-3-yl)ureidyl derivatives as selective non-steroidal agonists of the G-protein coupled bile acid receptor-1” (Scientific Reports, 2019).

The target of one data set is T1, LXRβ (Homo sapiens, UniProt P55055).
T1 construct: host or cells: HepG2
T1 sequence (P55055 1-460): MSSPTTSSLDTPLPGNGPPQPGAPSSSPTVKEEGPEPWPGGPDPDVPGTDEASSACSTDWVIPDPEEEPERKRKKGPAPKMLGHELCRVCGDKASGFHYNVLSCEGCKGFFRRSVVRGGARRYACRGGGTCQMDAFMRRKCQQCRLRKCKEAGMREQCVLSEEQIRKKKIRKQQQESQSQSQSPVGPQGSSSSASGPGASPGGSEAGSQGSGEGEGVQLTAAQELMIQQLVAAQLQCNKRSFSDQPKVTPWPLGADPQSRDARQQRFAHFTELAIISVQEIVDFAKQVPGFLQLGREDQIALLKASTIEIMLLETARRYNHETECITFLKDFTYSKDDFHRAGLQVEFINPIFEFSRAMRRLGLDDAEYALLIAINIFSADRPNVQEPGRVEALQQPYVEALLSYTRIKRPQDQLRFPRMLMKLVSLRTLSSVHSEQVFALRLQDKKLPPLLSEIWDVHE
The data set can be described thus: Luciferase reporter specificity assay versus LXRβ on HepG2 cells. Format: cell-based. As to conditions: 10 μM. The protocol:
(§1) The activity of compounds 1–14 on GPBAR1 was evaluated in a luciferase reporter assay using HEK-293T cells transfected with GPBAR1. The efficacy of tested compounds (Table 1) was measured using taurolithocholic acid (TLCA) as GPBAR1 reference compound[10],[11]. Each compound was tested at the concentration of 10 μM and transactivation activity of TLCA on a cAMP responsive element (CRE) (i.e. TGR5/GPBAR1) was considered equal to 100%. […] Thus, 9 and 10 (Table 1) turned out to be the most promising derivatives considering their low EC50 values and high activity efficacy. To further characterize the pharmacological properties of these compounds, we expanded their in vitro profile to common off-targets for bile acid receptor ligands.
Figure 3 (A) Dose response curves of compounds 9 and 10 (concentrations ranging from 1 to 50 µM) in luciferase reporter assay. (B) Real-time PCR analysis of mRNA expression of Pro-glucagon in GLUTag cells treated with compounds 9 and 10 at 10 μM, and TLCA used as a positive control (10 μM). Values are normalized to GAPDH and are expressed relative to those of not treated cells (NT) which are arbitrarily settled to 1. The relative mRNA expression is expressed as 2^(−ΔΔCt). […]
The specificity of compounds 9 and 10 versus PPARα, PPARγ, LXRα, LXRβ, FXR and PXR was determined in luciferase reporter gene assays as previously reported[29],[31].

The target of another data set is T2, GPBAR1 (Homo sapiens, UniProt Q8TDU6).
T2 construct: expressed in transfected cells; host or cells: HEK-293T
T2 sequence (Q8TDU6 1-330): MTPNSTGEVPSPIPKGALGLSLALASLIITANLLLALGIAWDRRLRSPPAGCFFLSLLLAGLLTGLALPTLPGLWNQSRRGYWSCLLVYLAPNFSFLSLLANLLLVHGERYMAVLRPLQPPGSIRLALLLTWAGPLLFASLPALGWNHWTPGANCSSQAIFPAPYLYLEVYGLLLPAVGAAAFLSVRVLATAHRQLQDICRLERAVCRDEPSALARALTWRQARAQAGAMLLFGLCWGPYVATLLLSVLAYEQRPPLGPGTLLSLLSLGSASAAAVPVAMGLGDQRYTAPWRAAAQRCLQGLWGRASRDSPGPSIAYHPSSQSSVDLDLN
Put plainly: Luciferase reporter (CRE) transactivation assay in HEK-293T cells transfected with GPBAR1. The format is cell-based. Conditions: dose response 1 to 50 µM, HEK-293T transfected with GPBAR1. The protocol:
as §1
Transactivation assay on HEK-293T cells was performed to investigate GPBAR1 activation, using compound 1–14 and TLCA as positive control at 10 µM, as previously reported.
Supplementary Figure S4. HEK-293T cells were transiently transfected with GPBAR1 and a reporter gene containing a cAMP responsive element in front of the luciferase gene. Cells were stimulated with compounds A-L (10 μM). TLCA (10 μM) was used as positive control. Luciferase activity served as a measure of the rise in intracellular cAMP following activation of GPBAR1. In all panels, results are expressed as mean ± standard error. ^∗p < 0.05 versus not treated cells (NT).

The nature of data set [1]: LogD measurement (octanol/PBS pH 7.4). Format: physicochemical. Conditions: octanol/PBS (1/1). The protocol:
Chromatography was performed using a HPLC–MS system Q-ToF Premiere instrument (Waters, Co.) equipped with an ESI source and Waters pump systems. The mixture was separated on a Luna 5 µm C8(2) 100 °A 150 × 2 mm from Phenomenex. The mobile phase consisted of 0.2% formic acid (FA) in water as solvent A and 0.2% FA in acetonitrile as solvent B at a flow rate of 200 μL/min. The gradient was as follows: 0–2 min (75% A and 25% B), 2–20 min (5% A and 95% B), 20–30 min (75% A and 25% B). The detection of analytes was achieved by ESI in the positive mode with the appropriate MRM transition or by UV system at 220 nm.
Ten μL of a 10 mM solution in DMSO of the compound was diluted in 490 μL of a 1/1 octanol/PBS mixture at pH 7.4. The mixture was gently shaken for 2 h at room temperature. Ten microliters of each phase was diluted in 490 μL of MeOH and analyzed by LC-MS/MS. Each compound was tested in triplicate. Log D was determined as the logarithm of the ratio of concentration of product in octanol and PBS, determined by mass signals.

As for `O=C(Nc1ccc(Cl)cc1)N[C@@H]1CN[C@H](c2nc(-c3ccccc3)no2)C1` [Compound 9], on LXRβ, the LXRβ transactivation result is recorded as “unable to induce”. This compound gave an EC50 on GPBAR1 of 3.5 µM. The same compound gave a logD at 2 h in data set [1] of 1.47.
For the compound `O=C(NC1CCCCC1)N[C@@H]1CN[C@H](c2nc(-c3ccccc3)no2)C1` [Compound 10], the LXRβ transactivation result on LXRβ is given as “unable to induce”. In addition, on GPBAR1, the midpoint of the response, the EC50, lay at 4.6 µM. Besides, the log distribution coefficient (logD) at 2 h in data set [1] amounted to 1.25.
